Consider 71 sequences from the OligoGym collection.

Several values for one entry are separate records, joined by “and”; a condition that tells them apart may be missing. Identical values can stand only once. After the bases stand the sugars from the 5' end (letter, count) and the backbone: PS all phosphorothioate, else s phosphorothioate and o phosphodiester by linkage. Methylation of C is not given here. e = 2'-O-(2-methoxyethyl) (MOE); k = constrained ethyl (cEt); d = 2'-deoxy (DNA)

The target in this data set is SOD1. The note with it: ASO.

With “TTAATGTTTATCAGGAT (sugars e2 k2 d9 k2 e2, linkages s1 o3 s9 o1 s2)”, the target mRNA inhibition runs as follows: (A431, 0.12 µM) 12%; (A431, 0.6 µM) 48%; (A431, 3 µM) 54%; (A431, 15 µM) 72%.

On to “GCAAAATACAGGTCATT (sugars e3 k2 d7 k2 e3, PS)”, for which the target mRNA inhibition (HepG2, 3 µM) turned out to be 43%.

Under “HepG2, 5 µM”, “CAAGTGATCATAAATCA (sugars e2 k2 d8 k2 e3, PS)” showed a target mRNA inhibition of 47%.

Turning to “TTCACAGGCTTGAATGA (sugars e3 k2 d7 k2 e3, PS)”, the target mRNA inhibition (HepG2, 3 µM) is 9%.

With “AATCAGTTTCTCACTAC (sugars e2 k2 d9 k2 e2, PS)”, the target mRNA inhibition (HepG2, 5 µM) was found to be 53%.

Consider “ATACATTTCTACAGCTAG (sugars e5 d8 e5, linkages s1 o3 s9 o2 s2)”, for which the target mRNA inhibition by setting is: (A431, 0.12 µM) 9%; (A431, 0.6 µM) 10%; (A431, 3 µM) 27%; (A431, 15 µM) 43%; (HepG2, 0.222 µM) 7%; (HepG2, 0.667 µM) 28%. Further, the target mRNA inhibition was found to be 54% (HepG2, 2 µM) and 79% (HepG2, 6 µM).

“CATCTTTGTCAGCAGTCACA (sugars e5 d10 e5, PS)”: the target mRNA inhibition (HepG2, 5 µM) is 34% and 13%.

Under “HepG2, 5 µM”, “AATGGTCTCCTGAGAGTGAG (sugars e5 d10 e5, PS)” came in with a target mRNA inhibition of 22%.

Regarding “AAATACAGGTCATTGAA (sugars e2 k2 d9 k2 e2, PS)”, the target mRNA inhibition (HepG2, 5 µM) is 47%.

As for “CACATTGCCCAAGTCTCCAA (sugars e5 d10 e5, PS)”, the target mRNA inhibition (HepG2, 5 µM) was 36% and 19%.

Turning to “CGCTAGGCCACGCCGAGGTC (sugars e5 d10 e5, PS)”, the target mRNA inhibition (HepG2, 4 µM) is 52%.

For the sequence “TGACAAGTTTAATACCC (sugars e2 k2 d9 k2 e2, PS)”, for the setting “HepG2, 5 µM”, the target mRNA inhibition turned out to be 52%.

As to “TAAGTCTGGCAAAATAC (sugars e2 k2 d8 k2 e3, PS)”, the target mRNA inhibition (HepG2, 5 µM) is 24%.

Take “GCCGTCGCCCTTCAGCA (sugars e2 k2 d9 k2 e2, PS)”: the target mRNA inhibition (HepG2, 4 µM) worked out at 57%.

The sequence “GTCGCCCTTCAGCACGC (sugars e3 k2 d7 k2 e3, PS)” had a target mRNA inhibition (HepG2, 3 µM) of 28%.

Where the note is “HepG2, 5 µM”, “AATTTGGATTCTTTTAATAG (sugars e5 d10 e5, PS)” yielded a target mRNA inhibition of 14%.

In the case of “CTCAGACTACATCCAAG (sugars e3 k2 d7 k2 e3, PS)”, the target mRNA inhibition reads like this: (HepG2, 0.1875 µM) 42%; (HepG2, 0.75 µM) 72%; (HepG2, 3 µM) 76% and 88%; (HepG2, 12 µM) 90%.

In turn, “TCTTTTAATAGCCTCAT (sugars e2 k2 d9 k2 e2, PS)” yielded a target mRNA inhibition (HepG2, 5 µM) of 56%.

Consider “CTGACAAGTTTAATACC (sugars e2 k2 d9 k2 e2, PS)”, for which the target mRNA inhibition (HepG2, 5 µM) worked out at 36%.

For the sequence “ATGTTTATTGGGCGATC (sugars e3 k2 d7 k2 e3, PS)”, for the setting “HepG2, 3 µM”, the target mRNA inhibition came out at 28%.

As to “CCCATCTGTGATTTAAG (sugars e2 k2 d9 k2 e2, PS)”, the target mRNA inhibition (HepG2, 5 µM) stood at 49%.

For “AAGTGAGGACCTGCACT (sugars e3 k2 d7 k2 e3, PS)”, the target mRNA inhibition (HepG2, 3 µM) came out at 16%.

“TCTGTGATTTAAGTCTG (sugars e2 k2 d9 k2 e2, PS)” registered a target mRNA inhibition (HepG2, 5 µM) of 49%.

For the sequence “ATCTTCCAAGTGATCAT (sugars e2 k2 d9 k2 e2, PS)”, where the note is “HepG2, 5 µM”, the target mRNA inhibition worked out at 38%.

Consider “CCAAGTGATCATAAATCAGT (sugars e5 d10 e5, PS)”, for which, for the setting “HepG2, 5 µM”, the target mRNA inhibition is 39%.

“TTCATCCTTTGGCCCACCGT (sugars e5 d10 e5, PS)” came in with a target mRNA inhibition (HepG2, 3 µM) of 30%.

“GATACATTTCTACAGCTAGC (sugars e5 d10 e5, PS)”: the target mRNA inhibition runs as follows: (HepG2, 4 µM) 78%; (HepG2, 12 µM) 90%.

As for “GTCGCCATAACTCGCTAGGC (sugars e5 d10 e5, PS)”, the target mRNA inhibition (HepG2, 0.1875 µM) is 10%; the target mRNA inhibition (HepG2, 0.75 µM) amounted to 21%; the target mRNA inhibition (HepG2, 3 µM) turned out to be 39%; the target mRNA inhibition (HepG2, 4 µM) stood at 40%; the target mRNA inhibition (HepG2, 12 µM) was found to be 90%.

With “CTCAGACTACATCCAAG (sugars e2 k2 d9 k2 e2, PS)”, the target mRNA inhibition is 0% (HepG2, 0.1875 µM); 40% (HepG2, 0.75 µM); 78% (HepG2, 3 µM); 76% (HepG2, 4 µM); 92% (HepG2, 12 µM).

Regarding “GGATACATTTCTACAGC (sugars e2 k2 d8 k2 e3, PS)”, the target mRNA inhibition reads like this: (HepG2, 0.1875 µM) 4%; (HepG2, 0.75 µM) 49%; (HepG2, 3 µM) 72%; (HepG2, 4 µM) 75%; (HepG2, 12 µM) 87%.

Under “HepG2, 3 µM”, “ACATGCCTCTCTTCATC (sugars e3 k2 d7 k2 e3, PS)” returned a target mRNA inhibition of 0%.

Regarding “AGACTACATCCAAGGGA (sugars e2 k2 d9 k2 e2, PS)”, under “HepG2, 4 µM”, the target mRNA inhibition was 55%.

“ACACCACAAGCCAAACGACT (sugars e5 d10 e5, PS)” came in with a target mRNA inhibition (HepG2, 5 µM) of 49%.

For the sequence “TGGATTCTTTTAATAGCCTC (sugars e5 d10 e5, PS)”, the target mRNA inhibition (HepG2, 5 µM) is 13%.

On to “GAACATGGAATCCATGC (sugars e3 k2 d7 k2 e3, PS)”, for which, for the setting “HepG2, 3 µM”, the target mRNA inhibition stood at 9%.

In the case of “TTAATGTTTATCAGGAT (sugars e2 k2 d8 k2 e3, PS)”, the target mRNA inhibition came to 50% (HepG2, 0.1875 µM); 86% (HepG2, 0.75 µM); 90% (HepG2, 3 µM); 90% (HepG2, 4 µM); 97% (HepG2, 12 µM).

In turn, “ATACAGGTCATTGAAAC (sugars e2 k2 d9 k2 e2, PS)” had a target mRNA inhibition (HepG2, 5 µM) of 22%.

As for “CTTTGGCCCACCGTGTTTTC (sugars e5 d10 e5, PS)”, the target mRNA inhibition (HepG2, 5 µM) is 31% and 15%.

For “TTATTCACAGGCTTGAA (sugars e2 k2 d9 k2 e2, PS)”, the target mRNA inhibition (HepG2, 5 µM) came to 30%.

“ATAACAGATGAGTTAAG (sugars e2 k2 d9 k2 e2, PS)”: where the note is “HepG2, 4 µM”, the target mRNA inhibition was 42%.

Sequence “TTTTATTCACAGGCTTG (sugars e2 k2 d9 k2 e2, PS)” displayed a target mRNA inhibition (HepG2, 5 µM) of 48%.

The sequence “ATAACAGATGAGTTAAG (sugars e2 k2 d8 k2 e3, PS)” registered a target mRNA inhibition (HepG2, 4 µM) of 27%.

Regarding “CACAGAATCTTCAATAGACA (sugars e5 d10 e5, PS)”, for the setting “HepG2, 5 µM”, the target mRNA inhibition was 10% and 14%.

Sequence “TATACAAATCTTCCAAG (sugars e3 k2 d7 k2 e3, PS)” displayed a target mRNA inhibition (HepG2, 3 µM) of 11%.

Consider “CATCTGTGATTTAAGTC (sugars e2 k2 d8 k2 e3, PS)”, for which the target mRNA inhibition (HepG2, 5 µM) amounted to 42%.

“AACTATACAAATCTTCC (sugars e2 k2 d9 k2 e2, PS)” returned a target mRNA inhibition (HepG2, 5 µM) of 63%.

For the setting “HepG2, 4 µM”, “TGCAACGGAAACCCCAGACG (sugars e5 d10 e5, PS)” displayed a target mRNA inhibition of 21%.

Under “HepG2, 5 µM”, “GTCATTGAAACAGACAT (sugars e2 k2 d9 k2 e2, PS)” showed a target mRNA inhibition of 15%.

In the case of “TATCAGGATACATTTCTACA (sugars e5 d10 e5, PS)”, the target mRNA inhibition by setting is: (HepG2, 0.1875 µM) 13%; (HepG2, 0.75 µM) 16%; (HepG2, 3 µM) 48%; (HepG2, 5 µM) 58%; (HepG2, 12 µM) 81%.

In the case of “GGCCCACCGTGTTTTCTGGA (sugars e5 d10 e5, PS)”, under “HepG2, 5 µM”, the target mRNA inhibition is 46% and 41%.

On to “TCTTTGTCAGCAGTCACATT (sugars e5 d10 e5, PS)”, for which, where the note is “HepG2, 5 µM”, the target mRNA inhibition was 20% and 11%.

“AGTGATCATAAATCAGT (sugars e2 k2 d9 k2 e2, PS)” gave a target mRNA inhibition (HepG2, 5 µM) of 32%.

“TCCATGCAGGCCTTCAG (sugars e3 k2 d7 k2 e3, PS)” gave a target mRNA inhibition (HepG2, 3 µM) of 18%.

For “ATTCACAGGCTTGAATG (sugars e2 k2 d9 k2 e2, PS)”, the target mRNA inhibition (HepG2, 5 µM) was 29%.

In turn, “TGTGATTTAAGTCTGGC (sugars e2 k2 d8 k2 e3, PS)” returned a target mRNA inhibition (HepG2, 5 µM) of 45%.

For the setting “HepG2, 4 µM”, “ATCCAAGGGAATGTTTA (sugars e2 k2 d9 k2 e2, PS)” showed a target mRNA inhibition of 39%.

In turn, “CTTTCTTCATTTCCACC (sugars e3 k2 d7 k2 e3, PS)” returned a target mRNA inhibition (HepG2, 3 µM) of 11%.

Under “HepG2, 3 µM”, “GTGTTTAATGTTTATCA (sugars e3 k2 d7 k2 e3, PS)” registered a target mRNA inhibition of 37%.

Sequence “TACAGGGTTTTTATTCA (sugars e2 k2 d9 k2 e2, PS)” gave a target mRNA inhibition (HepG2, 5 µM) of 31%.

“GCACTGGGCCGTCGCCCTTC (sugars e5 d10 e5, PS)” registered a target mRNA inhibition (HepG2, 4 µM) of 14%.

In the case of “TGGGCGATCCCAATTAC (sugars e2 k2 d8 k2 e3, PS)”, under “HepG2, 4 µM”, the target mRNA inhibition worked out at 19%.

For the sequence “CACACCTTCACTGGTCC (sugars e3 k2 d7 k2 e3, PS)”, the target mRNA inhibition (HepG2, 3 µM) is 12%.

In turn, “CAGTTTCTCACTACAGGTAC (sugars e5 d10 e5, PS)” gave a target mRNA inhibition (HepG2, 5 µM) of 25%.

“GCGACTACTTTATAGGCCAG (sugars e5 d10 e5, PS)” gave a target mRNA inhibition (HepG2, 4 µM) of 19%.

Sequence “AAATTGATGATGCCCTGCAC (sugars e5 d10 e5, PS)” displayed a target mRNA inhibition (HepG2, 4 µM) of 14%.

As for “GTTTATCAGGATACATT (sugars e2 k2 d8 k2 e3, PS)”, the target mRNA inhibition was 41% (HepG2, 0.1875 µM); 73% (HepG2, 0.75 µM); 89% (HepG2, 3 µM); 85% (HepG2, 4 µM); 92% and 95% (HepG2, 12 µM).

In turn, “AGCCTCATAATAAGTGCCAT (sugars e5 d10 e5, PS)” yielded a target mRNA inhibition (HepG2, 5 µM) of 6%.

“TTGGCCCACCGTGTTTTCTG (sugars e5 d10 e5, PS)”: the target mRNA inhibition (HepG2, 5 µM) was 35% and 26%.

Turning to “CTACAGCTAGCAGGATA (sugars e2 k2 d9 k2 e2, PS)”, the target mRNA inhibition by setting is: (HepG2, 0.1875 µM) 30%; (HepG2, 0.75 µM) 80%; (HepG2, 3 µM) 93%; (HepG2, 4 µM) 91%; (HepG2, 12 µM) 97%.

Sequence “AAGTCATCTGCTTTTTC (sugars e3 k2 d7 k2 e3, PS)” had a target mRNA inhibition (HepG2, 3 µM) of 83%.

For “TCTGCTCGAAATTGATG (sugars e3 k2 d7 k2 e3, PS)”, the target mRNA inhibition (HepG2, 3 µM) was determined as 34%.
